Experimental data from patent publication US5711020A (priority 1996, dated 1998).
“And” between values parts separate entries of the source, which are not always exact repeats. Equal values may be shown once. Read-outs that look alike come from different tables or passages of the source.

Columns and labels:
TNT reducing enzyme = format: biochemical
nitrilase = format: biochemical
[1] = not given; remark: listed apart in the source
[2] = not given; remark: listed apart in the source
[3] = test system: purified TNT-reducing agent

## ClC(Br)C(Cl)Br (stereo not drawn) [1,2-Dibromo-1,2-dichloroethane]
pH 7.2
  Rate Constant k: 5.44E-03 min - 1 and 4.54E-03 min - 1

## BrCCBr [1,2-Dibromoethane]
pH 7.2
  Rate Constant k: 7.13E-04 min - 1
Vechten pond sediment, pH 7.2
  Half life: 16.2 h

## ClC=C(Cl)Cl [TCE, trichloroethene]
Purified dehalogenase; 60 µM
  Half-life: 3.33 h

## ClC(Cl)(Cl)C(Cl)(Cl)Cl [HCA, hexachloroethane]
Purified dehalogenase; 30 µM
  Half-life: 3.33 h
Breukelveen sediment, pH 7.6
  Half life: 0.5 h
Dommel sediment, 0.0732 µM, pH 7.5
  Half life: 1.5 h
Loosdrechtse plassen sediment, 0.0732 µM, pH 7.7
  Half life: 9.5 h
pH 7.2
  Rate Constant k: 2.33E-03 min - 1
pH 7.5
  Rate Constant k: 7.62E-03 min - 1
pH 7.6
  Rate Constant k: 2.47E-02 min - 1
pH 7.7
  Rate Constant k: 1.22E-03 min - 1
Vechten pond sediment, pH 7.2
  Half life: 5.0 h

## Ic1ccccc1 [Iodobenzene]
pH 7.2
  Rate Constant k: 2.55E-05 min - 1
Vechten pond sediment, pH 7.2
  Half life: 453.0 h

## IC(I)=C(I)I [Tetraiodoethene]
pH 7.2
  Rate Constant k: 9.22E-02 min - 1
Vechten pond sediment, pH 7.2
  Half life: 0.1 h

## BrC(Br)=C(Br)Br [PBE, tetrabromoethene]
Purified dehalogenase; 30 µM
  Half-life: 18.33 h

## ClC(Cl)=C(Cl)Cl [PCE, tetrachloroethene]
Purified dehalogenase; 60 µM
  Half-life: 3.33 h
Purified dehalogenase; 100 µM
  Half-life: 10 h
pH 7.2
  Rate Constant k: 4.05E-05 min - 1
Vechten pond sediment, pH 7.2
  Half life: 285.5 h

## chymotrypsin
TNT reducing enzyme
  effect on TNT-reducing activity: no inhibition
nitrilase
  effect on activity of the nitrilase: inhibited

## O=[N+]([O-])c1ccccc1 [nitrobenzene]
[1]; bar-h sediment
  t1/2: 0.35 h
[1]; beaver dam sediment
  t1/2: 2.37 h
[1]; hickory hill sediment
  t1/2: 2.37 h
[1]; memorial park sediment
  t1/2: 2 h
[2]; pH 2.5
  kcorr, calculated maximum rate assuming a 10% analytical method error: 0.25 ± 0.025 10^4 m^-1
[2]; pH 3.85
  kcorr, calculated maximum rate assuming a 10% analytical method error: 0.12 ± 0.012 10^4 m^-1
[2]; pH 5.3
  kcorr: 4.6 ± 0.24 10^4 m^-1
  kobs, observed first-order disappearance rate constant and standard deviation: 4.0 ± 0.21 10^-4 m^-1
[2]; pH 7
  kcorr: 4.2 ± 0.20 10^4 m^-1
  kobs, observed first-order disappearance rate constant and standard deviation: 3.8 ± 0.18 10^-4 m^-1
[2]; pH 7.75
  kcorr: 8.5 ± 0.77 10^4 m^-1
  kobs, observed first-order disappearance rate constant and standard deviation: 7.7 ± 0.70 10^-4 m^-1
[2]; pH 9.15
  kcorr: 9.3 ± 0.62 10^4 m^-1
  kobs, observed first-order disappearance rate constant and standard deviation: 8.6 ± 0.57 10^-4 m^-1
[2]; pH 10.55
  kcorr: 7.8 ± 1.2 10^4 m^-1
  kobs, observed first-order disappearance rate constant and standard deviation: 6.6 ± 1.0 10^-4 m^-1
[3]
  Half-life: 28 h

## trypsin
TNT reducing enzyme
  effect on TNT-reducing activity: no inhibition
nitrilase
  effect on activity of the nitrilase: inhibited

## ClC(Cl)(Cl)Cl [Carbontetrachloride]
Breukelveen sediment, pH 7.6
  Half life: 10.0 h
pH 7.6
  Rate Constant k: 1.16E-03 min - 1
